Assay results reported in patent US20220119354A1, “DIAMINO-SUBSTITUTED PYRIDINES AND PYRIMIDINES AS HERBICIDES” (FMC Corporation, priority 2019, published 2022).

How the values were obtained:
Type in all cases: in vivo
rice (Oryza sativa) = experiment: Test B flooded paddy test, rice; settings: Flood, 250 g ai/ha, applied to paddy water, 2-leaf stage, visual evaluation after 13 to 15 d
Summary of the method: (§1)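 Plants grown to 2-leaf stage. Compounds applied directly into paddy water flooded 3 cm above soil, with that depth kept throughout. After 13–15 d in greenhouse, visual rating versus controls on a 0–100 scale (0 no effect, 100 complete control).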

kochia (Kochia scoparia) [1] = experiment: Test A postemergence, kochia; settings: 0 to 100 scale; for Plant response rating, Kochia: 125 g ai/ha, 0 no effect, 100 complete control; for Kochia plant response rating: 500 g ai/ha, 0 is no effect, 100 is complete control
Summary of the method: (§2)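 Post: seedlings 2–10 cm, 1–2 leaves, foliar spray. Pre: soil spray after sowing in loam/sand blend. Both formulated in non-phytotoxic solvent with surfactant; injury scored visually 0–100 after ~10 d.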

[2] = system: foxtail, giant (Setaria faberii); experiment: Test A postemergence, giant foxtail; settings: 0 to 100 scale; for Plant response rating, Foxtail, Giant: 125 g ai/ha, 0 no effect, 100 complete control; for Foxtail, Giant plant response rating: 500 g ai/ha, 0 is no effect, 100 is complete control
Summary of the method: as §2

[3] = system: wheat (Triticum aestivum); experiment: Test A postemergence, wheat; settings: 0 to 100 scale; for Plant response rating, Wheat: 125 g ai/ha, 0 no effect, 100 complete control; for Wheat plant response rating: 500 g ai/ha, 0 is no effect, 100 is complete control
Summary of the method: as §2

[4] = system: ryegrass, Italian (Lolium multiflorum); experiment: Test A postemergence, Italian ryegrass; settings: 0 to 100 scale; for Plant response rating, Ryegrass, Italian: 125 g ai/ha, 0 no effect, 100 complete control; for Ryegrass, Italian plant response rating: 500 g ai/ha, 0 is no effect, 100 is complete control
Summary of the method: as §2

[5] = system: ragweed (common ragweed, Ambrosia elatior); experiment: Test A postemergence, ragweed; settings: 0 to 100 scale; for Plant response rating, Ragweed: 125 g ai/ha, 0 no effect, 100 complete control; for Ragweed plant response rating: 500 g ai/ha, 0 is no effect, 100 is complete control
Summary of the method: as §2

[6] = system: barnyardgrass (Echinochloa crus-galli); experiment: Test A preemergence, barnyardgrass; settings: 0 to 100 scale, 0 is no effect, 100 is complete control
Summary of the method: as §2

[7] = system: pigweed (Amaranthus retroflexus); experiment: Test A preemergence, pigweed; settings: 0 to 100 scale, 0 is no effect, 100 is complete control
Summary of the method: as §2

[8] = system: ducksalad (Heteranthera limosa); experiment: Test B flooded paddy test, ducksalad; settings: Flood, 250 g ai/ha, applied to paddy water, 2-leaf stage, visual evaluation after 13 to 15 d
Summary of the method: as §1

[9] = system: ryegrass, Italian (Lolium multiflorum); experiment: Test A preemergence, Italian ryegrass; settings: 0 to 100 scale, 0 is no effect, 100 is complete control
Summary of the method: as §2

[10] = system: galium (catchweed bedstraw, Galium aparine); experiment: Test A postemergence, galium; settings: 0 to 100 scale; for Plant response rating, Galium: 125 g ai/ha, 0 no effect, 100 complete control; for Galium plant response rating: 500 g ai/ha, 0 is no effect, 100 is complete control
Summary of the method: as §2

[11] = system: barnyardgrass (Echinochloa crus-galli); experiment: Test A postemergence, barnyardgrass; settings: 0 to 100 scale; for Plant response rating, Barnyardgrass: 125 g ai/ha, 0 no effect, 100 complete control; for Barnyardgrass plant response rating: 500 g ai/ha, 0 is no effect, 100 is complete control
Summary of the method: as §2

[12] = system: sedge, umbrella (small-flower umbrella sedge, Cyperus difformis); experiment: Test B flooded paddy test, umbrella sedge; settings: Flood, 250 g ai/ha, applied to paddy water, 2-leaf stage, visual evaluation after 13 to 15 d
Summary of the method: as §1

[13] = system: foxtail, giant (Setaria faberii); experiment: Test A preemergence, giant foxtail; settings: 0 to 100 scale, 0 is no effect, 100 is complete control
Summary of the method: as §2

[14] = system: ragweed (common ragweed, Ambrosia elatior); experiment: Test A preemergence, ragweed; settings: 0 to 100 scale, 0 is no effect, 100 is complete control
Summary of the method: as §2

[15] = system: blackgrass (Alopecurus myosuroides); experiment: Test A postemergence, blackgrass; settings: 0 to 100 scale; for Plant response rating, Blackgrass: 125 g ai/ha, 0 no effect, 100 complete control; for Blackgrass plant response rating: 500 g ai/ha, 0 is no effect, 100 is complete control
Summary of the method: as §2

[16] = system: pigweed (Amaranthus retroflexus); experiment: Test A postemergence, pigweed; settings: 0 to 100 scale; for Plant response rating, Pigweed: 125 g ai/ha, 0 no effect, 100 complete control; for Pigweed plant response rating: 500 g ai/ha, 0 is no effect, 100 is complete control
Summary of the method: as §2

kochia (Kochia scoparia) [17] = experiment: Test A preemergence, kochia; settings: 0 to 100 scale, 0 is no effect, 100 is complete control
Summary of the method: as §2

corn (Zea mays) = experiment: Test A postemergence, corn; settings: 0 to 100 scale; for Plant response rating, Corn: 125 g ai/ha, 0 no effect, 100 complete control; for Corn plant response rating: 500 g ai/ha, 0 is no effect, 100 is complete control
Summary of the method: as §2

[18] = system: barnyardgrass (Echinochloa crus-galli); experiment: Test B flooded paddy test, barnyardgrass; settings: Flood, 250 g ai/ha, applied to paddy water, 2-leaf stage, visual evaluation after 13 to 15 d
Summary of the method: as §1

| SMILES | Plant response rating, Rice (0 to 100 scale, 0 is no effect, 100 is complete control) (rice (Oryza sativa)) | Plant response rating, Kochia (kochia (Kochia scoparia) [1]) | Kochia plant response rating (kochia (Kochia scoparia) [1]) | Plant response rating, Foxtail, Giant [2] | Foxtail, Giant plant response rating [2] | Plant response rating, Wheat [3] | Wheat plant response rating [3] | Plant response rating, Ryegrass, Italian [4] | Ryegrass, Italian plant response rating [4] | Plant response rating, Ragweed [5] | Ragweed plant response rating [5] | Barnyardgrass plant response rating ([6]; 125 g ai/ha) | Barnyardgrass plant response rating ([6]; 500 g ai/ha) | Pigweed plant response rating ([7]; 125 g ai/ha) | Pigweed plant response rating ([7]; 500 g ai/ha) | Plant response rating, Ducksalad (0 to 100 scale, 0 is no effect, 100 is complete control) [8] | Ryegrass, Italian plant response rating ([9]; 125 g ai/ha) | Ryegrass, Italian plant response rating ([9]; 500 g ai/ha) | Plant response rating, Galium [10] | Galium plant response rating [10] | further results |
| --- | --- | --- | --- | --- | --- | --- | --- | --- | --- | --- | --- | --- | --- | --- | --- | --- | --- | --- | --- | --- | --- |
| CC(Nc1ncc(C(F)(F)F)c(N)n1)c1coc2cc(F)ccc12 (racemic) [Compound 51] | 0 | 80 | 90 | 20 | 50 | 0 | 30 | 30 | 50 | 90 | 100 | 40 | 100 | 90 | 100 | 0 | 60 | 80 | 70 | 90 | Plant response rating, Barnyardgrass [11]: 0; Barnyardgrass plant response rating [11]: 50; Plant response rating, Sedge, Umbrella (0 to 100 scale, 0 is no effect, 100 is complete control) [12]: 0; Foxtail, Giant plant response rating ([13]; 125 g ai/ha): 10; Foxtail, Giant plant response rating ([13]; 500 g ai/ha): 90; Ragweed plant response rating ([14]; 125 g ai/ha): 100; Ragweed plant response rating ([14]; 500 g ai/ha): 100; Plant response rating, Blackgrass [15]: 0; Blackgrass plant response rating [15]: 10; Plant response rating, Pigweed [16]: 100; Pigweed plant response rating [16]: 100; Kochia plant response rating (kochia (Kochia scoparia) [17]; 125 g ai/ha): 90; Kochia plant response rating (kochia (Kochia scoparia) [17]; 500 g ai/ha): 100; Plant response rating, Corn (corn (Zea mays)): 0; Corn plant response rating (corn (Zea mays)): 10; Plant response rating, Barnyardgrass (0 to 100 scale, 0 is no effect, 100 is complete control) [18]: 0 |
| CCC(Nc1ncc(C(F)(F)F)c(N)n1)c1coc2ccccc12 (racemic) [Compound 53] | 0 | 50 | 90 | 10 | 30 | 0 | 0 | 20 | 60 | 20 | 80 | 0 | 80 | 80 | 90 | 0 | 20 | 20 | 30 | 80 | Plant response rating, Barnyardgrass [11]: 0; Barnyardgrass plant response rating [11]: 30; Plant response rating, Sedge, Umbrella (0 to 100 scale, 0 is no effect, 100 is complete control) [12]: 0; Foxtail, Giant plant response rating ([13]; 125 g ai/ha): 90; Foxtail, Giant plant response rating ([13]; 500 g ai/ha): 90; Ragweed plant response rating ([14]; 125 g ai/ha): 100; Ragweed plant response rating ([14]; 500 g ai/ha): 90; Plant response rating, Blackgrass [15]: 0; Blackgrass plant response rating [15]: 0; Plant response rating, Pigweed [16]: 60; Pigweed plant response rating [16]: 100; Kochia plant response rating (kochia (Kochia scoparia) [17]; 125 g ai/ha): 60; Kochia plant response rating (kochia (Kochia scoparia) [17]; 500 g ai/ha): 90; Plant response rating, Corn (corn (Zea mays)): 0; Corn plant response rating (corn (Zea mays)): 0; Plant response rating, Barnyardgrass (0 to 100 scale, 0 is no effect, 100 is complete control) [18]: 0 |
